These results are taken from ChEMBL document CHEMBL1131727, “Synthesis and biological evaluation of alpha-mannosidase inhibitory activity of three deoxy derivatives of mannostatin A” (Bioorg Med Chem Lett, 1999).

pIC50: −log10 of the molar value.

In general, pIC50 refers to the negative decadic logarithm of the IC50, by convention in mol/L. A high value points to a small IC50.

This assay is described as follows: Compound was tested for the inhibitory activity against alpha-mannosidase.
The compound `CS[C@H]1C[C@H](O)[C@H](O)[C@@H]1N` had a pIC50 of 4.55.
The compound `CS[C@H]1[C@H](O)[C@H](O)C[C@@H]1N` showed a pIC50 of less than 4.00.
`OCC1NC(O)C(O)C(O)C1O` (stereo not given) gave a pIC50 of 4.38.
The same measure for `CS[C@@H]1[C@@H](N)[C@@H](O)C[C@H]1O`: 4.51; for `CS[C@@H]1[C@@H](N)[C@@H](O)[C@@H](O)[C@H]1O` [MANNOSTATIN A]: 6.62.
